From patent publication US9493468B2, “Antifungal 5,6-dihydro-4H-pyrrolo[1,2-a][1,4]benzo-diazepines and 6H-pyrrolo[1,2-a][1,4]benzodiazepines substituted with heterocyclic derivatives” (Janssen Pharmaceutica NV, priority 2011, dated 2016)

Legend:
Assay type in all cases: cell-based
Aspergillus fumigatus = test: Antifungal activity in vitro, resazurin growth inhibition: Aspergillus fumigatus (B42928); settings: for IC50: read-out: Inf. E: Aspergillus fumigatus B42928 pIC50 (converted)
Summary of the method: (§1)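 Resazurin conversion to fluorescent resorufin (ex 550/em 590 nm) served as the growth readout. Compounds spanned 2- or 4-fold serial dilutions with 64 μM top in-test concentration; inoculum 10^3 cfu per well in MOPS-buffered RPMI-1640 (pH 7.0, 2% glucose). Incubation species-dependent, dermatophytes at 27° C. for ≥1 week.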

Scedosporium prolificans = test: Antifungal activity in vitro, resazurin growth inhibition: Scedosporium prolificans (IHEM21157); settings: for IC50: Lomentospora prolificans, read-out: Inf. I: Scedosporium prolificans IHEM21157 pIC50 (converted)
Protocol: (§2) The standard susceptibility screen is performed in 96-well plates (U-bottom, Greiner Bio-One). Serial dilutions (2-fold or 4-fold) of 20 mM compound stock solutions are made in 100% DMSO, followed by an intermediate dilution step in water. These serial dilutions (10 μl) are then spotted onto test-plates that can be stored in the dark at 4° C. for a maximum period of 2 weeks. An adequate broad dose-range is included with 64 μM as the highest in-test concentration. The culture medium RPMI-1640 is supplemented with L-glutamine, 2% glucose and buffered with 3-(N-morpholino)-propanesulfonic acid (MOPS) at pH 7.0±0.1.
(§3) The different fungal species/isolates (Table 3a) are cryopreserved and 1/1000 diluted in medium just prior to use. A standard inoculum of 200 μl containing 10^3 colony-forming unit (cfu) is then added to each well. A positive control (100% growth=fungal culture without antifungal) and a negative control (0% growth ═RPMI-MOPS medium) are included on each plate. Optimal incubation time and temperature are dependent on the fungal species and vary from 24 h for yeasts (37° C.) to one week or more for dermatophytes (27° C.). Inhibition of fungal growth is measured after adding 10 μl of 0.005% (w/v) resazurin (Sigma Aldrich) to each well, based on the principle that living cells convert the non-fluorescent blue resazurin into the pink and fluorescent resorufin, allowing fluorimetric reading (λex 550 nm and λem 590 nm) after an additional incubation period (‘resa’ time mentioned in Table 3a).

Cryptococcus neoformans = test: Antifungal activity in vitro, resazurin growth inhibition: Cryptococcus neoformans (B66663); settings: for IC50: read-out: Inf. F: Cryptococcus neoformans B66663 pIC50 (converted)
Summary of the method: as §1

Trichophyton rubrum = test: Antifungal activity in vitro, resazurin growth inhibition: Trichophyton rubrum (B68183); settings: for IC50: read-out: Inf. C: Trichophyton rubrum B68183 pIC50 (converted)
Summary of the method: (§4)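 Fungi (10^3 cfu/well) grown in RPMI-1640 with L-glutamine, 2% glucose, MOPS pH 7.0, against 2- or 4-fold compound dilutions up to 64 μM. Dermatophytes incubated one week or more at 27° C. Growth inhibition read fluorimetrically (λex 550, λem 590 nm) after resazurin addition and further incubation.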

Microsporum canis = test: Antifungal activity in vitro, resazurin growth inhibition: Microsporum canis (B68128); settings: for IC50: read-out: Inf. B: Microsporum canis B68128 pIC50 (converted)
Summary of the method: as §4

Candida parapsilosis = test: Antifungal activity in vitro, resazurin growth inhibition: Candida parapsilosis (B66126); settings: for IC50: Lodderomyces parapsilosis, read-out: Inf. D: Candida parapsilosis B66126 pIC50 (converted)
Summary of the method: as §1

Sporothrix schenkii = test: Antifungal activity in vitro, resazurin growth inhibition: Sporothrix schenkii (B62482); settings: for IC50: read-out: Inf. A: Sporothrix schenkii B62482 pIC50 (converted)
Summary of the method: as §1

Scedosporium apiospermum = test: Antifungal activity in vitro, resazurin growth inhibition: Scedosporium apiospermum (IHEM3817); settings: for IC50: read-out: Inf. H: Scedosporium apiospermum IHEM3817 pIC50 (converted)
Protocol: as §2, §3

[1] = system: Trichophyton mentagrophytes; test: Antifungal activity in vitro, resazurin growth inhibition: Trichophyton mentagrophytes (B70554); settings: for IC50: read-out: Inf. G: Trichophyton mentagrophytes B70554 pIC50 (converted)
Summary of the method: as §4

Rhizomucor miehei = test: Antifungal activity in vitro, resazurin growth inhibition: Rhizomucor miehei (IHEM13391)
Protocol: as §2, §3

Rhizopus oryzae = test: Antifungal activity in vitro, resazurin growth inhibition: Rhizopus oryzae (IHEM5223)
Protocol: as §2, §3

Structure (SMILES) | Inf. E: Aspergillus fumigatus B42928, pIC50 (Aspergillus fumigatus) | Inf. I: Scedosporium prolificans IHEM21157, pIC50 (Scedosporium prolificans) | Inf. F: Cryptococcus neoformans B66663, pIC50 (Cryptococcus neoformans) | Inf. C: Trichophyton rubrum B68183, pIC50 (Trichophyton rubrum) | Inf. B: Microsporum canis B68128, pIC50 (Microsporum canis) | Inf. D: Candida parapsilosis B66126, pIC50 (Candida parapsilosis) | Inf. A: Sporothrix schenkii B62482, pIC50 (Sporothrix schenkii) | Inf. H: Scedosporium apiospermum IHEM3817, pIC50 (Scedosporium apiospermum) | Inf. G: Trichophyton mentagrophytes B70554, pIC50 [1] | IC50 (Aspergillus fumigatus) [nM] | IC50 (Scedosporium prolificans) [nM] | IC50 (Cryptococcus neoformans) [nM] | IC50 (Trichophyton rubrum) [nM] | IC50 (Microsporum canis) [nM] | IC50 (Candida parapsilosis) [nM] | IC50 (Sporothrix schenkii) [nM] | IC50 (Scedosporium apiospermum) [nM] | IC50 [1] [nM] | Inf. K: Rhizomucor miehei IHEM13391, pIC50 (Rhizomucor miehei) | Inf. J: Rhizopus oryzae IHEM5223, pIC50 (Rhizopus oryzae)
Clc1ccc2c(c1)-n1cccc1C(c1ccc3nc[nH]c3c1)=NC2 [Compound 204] | <4 | <4 | <4 | 4.67 | 4.50 | <4 | <4 | <4 | <4 |  |  |  |  |  |  |  |  |  |  | 
Clc1cccc2c1CN=C(c1cccnc1)c1cccn1-2 [Compound 199] | <4 | <4 | 5.00 | 5.00 | 4.50 | <4 | <4 | <4 | <4 |  |  |  |  |  |  |  |  |  |  | 
Clc1ccc2c(c1)-n1cccc1C(c1ccncc1)=NC2 [Compound 203] | <4 | <4 | <4 | 4.67 | 4.50 | <4 | <4 | <4 | <4 |  |  |  |  |  |  |  |  |  |  | 
CCc1ccc(C2NCc3c(Cl)cccc3-n3cccc32)nc1.Cl (racemic) [Compound 13] | <4.19 |  | 4.52 | 5.70 | 5.40 | <4.19 | <4.19 |  | 5.00 |  |  |  |  |  |  |  |  |  |  | 
Fc1cc(F)c2c(c1)-n1cccc1C(c1cnc(Cl)c(Cl)c1)=NC2 [Compound 81] | 5.58 |  | <4.19 | <4.19 | <4.19 | 4.19 | 5.65 |  | <4.19 |  |  |  |  |  |  |  |  |  |  | 
Cc1cccc2c1CN=C(c1cnc(C(F)(F)F)nc1)c1cccn1-2 [Compound 103] | <4.19 |  | <4.19 | 4.49 | <4.19 | <4.19 | <4.19 |  | <4.19 |  |  |  |  |  |  |  |  |  |  | 

More lines, now with the values ahead:

Inf. E: Aspergillus fumigatus B42928, pIC50 (Aspergillus fumigatus) | Inf. I: Scedosporium prolificans IHEM21157, pIC50 (Scedosporium prolificans) | Inf. F: Cryptococcus neoformans B66663, pIC50 (Cryptococcus neoformans) | Inf. C: Trichophyton rubrum B68183, pIC50 (Trichophyton rubrum) | Inf. B: Microsporum canis B68128, pIC50 (Microsporum canis) | Inf. D: Candida parapsilosis B66126, pIC50 (Candida parapsilosis) | Inf. A: Sporothrix schenkii B62482, pIC50 (Sporothrix schenkii) | Inf. H: Scedosporium apiospermum IHEM3817, pIC50 (Scedosporium apiospermum) | Inf. G: Trichophyton mentagrophytes B70554, pIC50 [1] | IC50 (Aspergillus fumigatus) [nM] | IC50 (Scedosporium prolificans) [nM] | IC50 (Cryptococcus neoformans) [nM] | IC50 (Trichophyton rubrum) [nM] | IC50 (Microsporum canis) [nM] | IC50 (Candida parapsilosis) [nM] | IC50 (Sporothrix schenkii) [nM] | IC50 (Scedosporium apiospermum) [nM] | IC50 [1] [nM] | Inf. K: Rhizomucor miehei IHEM13391, pIC50 (Rhizomucor miehei) | Inf. J: Rhizopus oryzae IHEM5223, pIC50 (Rhizopus oryzae) | Structure (SMILES)
 |  |  |  |  |  |  |  |  | > 100000 | 100 | > 100000 | 1000 | 1000 | > 100000 | > 100000 | > 100000 | > 100000 |  |  | Clc1cccc2c1CN=C(c1cnc3ccccc3c1)c1cccn1-2 [Compound 201]
<4 | <4 | 5.00 | <4 | 4.00 | <4 | <4 | <4 | <4 |  |  |  |  |  |  |  |  |  |  |  | Clc1cccc2c1CN=C(c1ccncc1)c1cccn1-2 [Compound 198]
5.33 | 6.00 | 5.33 | 6.00 | 5.00 | <4 | 5.33 | 5.00 | 5.33 |  |  |  |  |  |  |  |  |  |  |  | Clc1ccc2c(c1)-n1cccc1C(c1cnc3ccccc3c1)=NC2 [Compound 206]
<4 | 5.00 | 5.00 | 6.00 | 6.00 | 4.00 | 5.00 | <4 | 5.33 |  |  |  |  |  |  |  |  |  |  |  | Clc1cccc2c1CN=C(c1ccc3ccccc3n1)c1cccn1-2 [Compound 197]
 |  | 5.30 |  |  | 5.70 | 5.70 | <4.19 | 7.07 |  |  |  |  |  |  |  |  |  | <4.19 | <4.19 | Clc1cccc2c1CN=C(c1cc3ccccc3o1)c1cccn1-2 [Compound 118]
4.48 |  | 4.51 | <4.19 | <4.19 | <4.19 | <4.19 |  | 4.49 |  |  |  |  |  |  |  |  |  |  |  | Clc1cccc2c1CN=C(c1ccc3c(Cl)coc3c1)c1cccn1-2 [Compound 156]
<4.19 |  | <4.19 | 6.18 | 4.98 | <4.19 | <4.19 |  | 4.19 |  |  |  |  |  |  |  |  |  |  |  | CCc1cnc(C2=NCc3c(Cl)cccc3-n3cccc32)s1 [Compound 66]
 |  |  |  |  |  |  |  |  | 2140 | 100 | 10000 | 100 | 10 | > 100000 | 1000 | 10000 | 468 |  |  | c1ccc2c(c1)CN=C(c1cnc3ccccc3c1)c1cccn1-2 [Compound 202]
<4.19 |  | <4.19 | 5.11 | 4.81 | <4.19 | <4.19 |  | <4.19 |  |  |  |  |  |  |  |  |  |  |  | COc1cccc2cc(C3=NCc4c(Cl)cc(Cl)cc4-n4cccc43)oc12 [Compound 145]
